Measured values taken from PubChem BioAssay (NCI).
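Compound exposure: 48 hours, 5 concentrations, 96-well plates. The concentration for 50% growth inhibition is given as GI50. TGI is the concentration that stops growth completely.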

What was measured:
Experiment in all cases: NCI-60 cell line screen, 48 h
SW-620 colon = system: SW-620 colon
SR leukemia = system: SR leukemia
MCF7 breast = system: MCF7 breast
HCT-116 colon = system: HCT-116 colon
OVCAR-5 ovarian = system: OVCAR-5 ovarian
PC-3 prostate = system: PC-3 prostate
CAKI-1 renal = system: CAKI-1 renal
KM12 colon = system: KM12 colon
HCT-15 colon = system: HCT-15 colon
SNB-75 CNS = system: SNB-75 CNS

Compound	GI50 (SW-620 colon)	TGI (SW-620 colon)	GI50 (SR leukemia)	TGI (SR leukemia)	GI50 (MCF7 breast)	TGI (MCF7 breast)	GI50 (HCT-116 colon)	TGI (HCT-116 colon)	GI50 (OVCAR-5 ovarian)	TGI (OVCAR-5 ovarian)	GI50 (PC-3 prostate)	TGI (PC-3 prostate)	GI50 (CAKI-1 renal)	TGI (CAKI-1 renal)	GI50 (KM12 colon)	TGI (KM12 colon)	GI50 (HCT-15 colon)	TGI (HCT-15 colon)	GI50 (SNB-75 CNS)	TGI (SNB-75 CNS)
CC/C=C\C/C=C\C[C@H](O)C/C=C1/C(=O)C=C[C@H]1C/C=C\CCC(=O)OC	2.19 µM	> 8.25 µM	1.61 µM	> 8.25 µM	2.43 µM	> 8.25 µM	1.55 µM	3.15 µM	5 µM	> 8.25 µM	3.75 µM	> 8.25 µM	6.01 µM	> 8.25 µM	2.2 µM	> 8.25 µM	1.85 µM	6.47 µM	> 8.25 µM	> 8.25 µM
Cc1ccccc1S(=O)(=O)N1[C@H](c2ccc(Cl)cc2)C(C(=O)N[C@@H](Cc2ccccc2)C(N)=O)=C[C@@H]1C(C)(C)C	7.76 µM	19.8 µM	3.91 µM	15.4 µM	2.17 µM	9.67 µM	2.9 µM	15.1 µM	5.62 µM	11.9 µM	2.39 µM	12.2 µM	5.68 µM	16.6 µM	4.49 µM	13.3 µM	2.38 µM	9.5 µM	4.85 µM	12 µM
C[C@@H]1COCCN1c1nc(-c2cnc(N)cc2C(F)F)nc(N2[C@H](C)COC[C@@H]2C)n1	0.419 µM	13 µM	0.189 µM	4.88 µM	0.115 µM	11.4 µM	0.485 µM	14.5 µM	0.392 µM	16.5 µM	0.215 µM	14.4 µM	0.19 µM	11.4 µM	0.423 µM	13.8 µM	0.236 µM	12.4 µM	0.0682 µM	0.571 µM
Nc1nc2c(c3ncccc13)C(c1ccc(Cl)c(Cl)c1)Cc1ncccc1-2 (configuration not stated)	3.5 µM	19 µM	2.46 µM	13 µM	2.99 µM	14.2 µM	3.71 µM	14.1 µM	6.51 µM	24.2 µM	3.4 µM	15.5 µM	3.9 µM	20.5 µM	2.73 µM	14.4 µM	4.36 µM	16.1 µM	1.85 µM	6.6 µM
O=C1c2ccccc2-c2c1c1ccc([N+](=O)[O-])cc1c(=O)n2CCNCCCNCCn1c2c(c3ccc([N+](=O)[O-])cc3c1=O)C(=O)c1ccccc1-2	0.0641 µM	5.68 µM	0.005 µM	18.8 µM	0.708 µM	27.1 µM	0.129 µM	4.5 µM	0.673 µM	6.42 µM	0.547 µM	9.18 µM	0.822 µM	21.7 µM	0.172 µM	11.3 µM	0.197 µM	16.1 µM	0.445 µM	2.41 µM
CC(=N\O)/C(C)=N/O.CC(=N\O)/C(C)=N/O.CC(=N\O)/C(C)=N/O.CC(=N\O)/C(C)=N/O.[Cu].[Cu]	21.5 µM	45.9 µM	24 µM	61.4 µM	17.3 µM	31.2 µM	19.2 µM	35.6 µM	19.3 µM	34 µM	16.7 µM	30.3 µM	20.3 µM	34.6 µM	20.6 µM	36.4 µM	20.6 µM	42.1 µM	17.1 µM	31.8 µM
CN(C)/C=C/c1nnnn1-c1ccc(Cl)cc1	10.7 µM	49.8 µM	3.35 µM	29.6 µM	6.03 µM	24.8 µM	4.4 µM	37.3 µM	24.7 µM	55.4 µM	6.76 µM	35.5 µM	–	–	22 µM	64.8 µM	5.04 µM	80 µM	25.1 µM	> 100 µM
OCc1cccc(-c2ccc3ncc(-c4nc(NC5CC5)ncc4F)n3c2)c1	0.258 µM	0.971 µM	0.0541 µM	> 38.9 µM	0.308 µM	1.19 µM	0.182 µM	> 100 µM	–	–	0.314 µM	3.23 µM	0.153 µM	1.65 µM	0.222 µM	1.21 µM	0.267 µM	1.39 µM	0.199 µM	0.453 µM
O=C1c2ccccc2-c2nccc3cc(Cl)nc1c23	1.15 µM	2.37 µM	1.34 µM	4.18 µM	1.3 µM	2.72 µM	1.18 µM	2.41 µM	> 72.5 µM	> 100 µM	2.96 µM	> 100 µM	> 100 µM	> 100 µM	–	–	–	–	1.93 µM	9.56 µM
